From BigSolDB 2.1

Details: in water

Row | SMILES | solubility (mole fraction) (293.15 K) | solubility (mole fraction) (298.15 K) | solubility (mole fraction) (303.15 K) | solubility (mole fraction) (308.15 K) | solubility (mole fraction) (313.15 K) | solubility (mole fraction) (318.15 K) | solubility (mole fraction) (323.15 K)
1 | CCn1cc(C(=O)O)c(=O)c2cc(F)c(N3CCNCC3)cc21 | 2.02e-05 | 2.27e-05 | 2.54e-05 | 2.92e-05 | 3.38e-05 | 3.93e-05 | 4.69e-05
2 | CCn1cc(C(=O)O)c(=O)c2cnc(N3CCNCC3)nc21 | 1.85e-05 | 2.04e-05 | 2.3e-05 | 2.63e-05 | 3.02e-05 | 3.4e-05 | 3.83e-05
3 | CCn1cc(C(=O)O)c(=O)c2cc(F)c(N3CCNC(C)C3)c(F)c21 (stereo unspecified) | 3.48e-05 | 3.77e-05 | 4.33e-05 | 4.9e-05 | 5.63e-05 | 6.54e-05 | 7.57e-05
